These are literature values, as cited in PubChem BioAssay AID1259409 (Chemical Carcinogenesis Research Information System (CCRIS), 2018).

For this data set, the system named is rodent chemically induced tumor inhibition, incidence and multiplicity. Briefly: CCRIS tumor inhibitor studies. Particulars: Route [Inhibitor]: ORAL, Species: RAT.

SMILES strings stand for the structures. Values joined by “and” are separate entries in the source; they are usually repeats but may differ in a detail not shown here. Identical values can stand only once.

As for `CC1=C(/C=C/C(C)=C/C=C/C(C)=C/C(=O)Nc2ccc(O)cc2)C(C)(C)CCC1`, the “tumour outcome (control, treated, inhibition, significance)” value was 80%, 28%, 65%, p<0.oo5 and 68%, 42%, 38%, p<0.005 (Carcinogen: N-METHYL-N'-NITROSOUREA, 684-93-5, Dose [Inhibitor]: 0, 782 MG/KG IN DIET FOR DURATION OF STUDY BEGINNING 60 D PRIOR TO CARCINOGEN DOSE (STUDY DURATION: 240 D), Strain/Sex: SPRAGUE-DAWLEY/FEMALE, Target Tissue: Type of Lesion: MAMMARY GLAND: TUMOR, Dose [Carcinogen]: 50 MG/KG BW ONCE, Promoter: NONE USED); 95.4%, 87.5%, 8.3% (Carcinogen: N-METHYL-N-NITROSOUREA [684-93-5], Dose [Inhibitor]: 2 MMOL/KG IN DIET FOR 6 WK BEGINNING 4 WK POST LAST CARCINOGEN DOSE (STUDY DURATION: 11 WK), Strain/Sex: SPRAGUE-DAWLEY/FEMALE, Target Tissue: Type of Lesion: MAMMARY GLAND: CARCINOMA, Dose [Carcinogen]: 50 MG/KG BW IP 1X/WK FOR 2 WK (STUDY DURATION: 11 WK), Promoter: NONE); 95.4%, 45.0%, 53%, p<0.05 (Carcinogen: N-METHYL-N-NITROSOUREA [684-93-5], Dose [Inhibitor]: 2 MMOL/KG IN DIET FOR 10 WK BEGINNING 2 D POST LAST CARCINOGEN DOSE (STUDY DURATION: 11 WK), Strain/Sex: SPRAGUE-DAWLEY/FEMALE, Target Tissue: Type of Lesion: MAMMARY GLAND: CARCINOMA, Dose [Carcinogen]: 50 MG/KG BW IP 1X/WK FOR 2 WK (STUDY DURATION: 11 WK), Promoter: NONE); 23/40 (57%), 17/40 (43%), 24.6%,p<0.01 (Carcinogen: N-METHYL-N-NITROSOUREA [684-93-5], Dose [Inhibitor]: 196 MG/KG DIET BEGINNING 7 D PRIOR TO CARCINOGEN DOSE (STUDY DURATION: 187 D), Strain/Sex: SPRAGUE-DAWLEY/FEMALE, Target Tissue: Type of Lesion: MAMMARY GLAND: ADENOCARCINOMA, Dose [Carcinogen]: 50 MG/KG BW ONCE AT 100 D OF AGE); 25/25 (100%), 24/25 (96%), 4%, not significant (Carcinogen: N-METHYL-N-NITROSOUREA [684-93-5], Dose [Inhibitor]: 586 MG/KG DIET BEGINNING 3 D POST-CARCINOGEN DOSE (STUDY DURATION: 150 D), Strain/Sex: SPRAGUE-DAWLEY/FEMALE, Target Tissue: Type of Lesion: MAMMARY GLAND: ADENOCARCINOMA, Dose [Carcinogen]: 50 MG/KG BW ONCE AT 50 D OF AGE); 16/18 (89%), 4/19 (21%), 76%, p<0.001 (Carcinogen: N-METHYL-N-NITROSOUREA, 684-93-5, Dose [Inhibitor]: 0, 1 MMOL/KG IN DIET FOR 7 MO BEGINNING 7 MO POST CARCINOGEN DOSE (STUDY DURATION: 14 MO), Strain/Sex: LOBUND WISTAR/MALE, Target Tissue: Type of Lesion: PROSTATE: ADENOCARCINOMA, Dose [Carcinogen]: 30 MG/KG BW ONCE, Promoter: TESTOSTERONE PROPIONATE, 57-85-2). Moreover, the “tumour outcome (control, treated, inhibition, significance)” value reads like this: (Carcinogen: N-METHYL-N-NITROSOUREA, 684-93-5, Dose [Inhibitor]: 0, 328 MG/KG OF DIET FOR DURATION OF STUDY BEGINNING 1 WK PRIOR TO CARCINOGEN TREATMENT (STUDY DURATION: 117 D), Strain/Sex: SPRAGUE-DAWLEY/FEMALE, Target Tissue: Type of Lesion: MAMMARY GLAND: ADENOCARCINOMA, Dose [Carcinogen]: 50 MG/KG BW ONCE, Promoter: NONE USED) 100%, 84%, 16%, not significant; (Carcinogen: N-METHYL-N-NITROSOUREA, 684-93-5, Dose [Inhibitor]: 0, 391 MG/KG DIET BEGINNING AFTER THE SURGICAL REMOVAL OF THE FIRST PALPABLE TUMOR (STUDY DURATION: LIFETIME), Strain/Sex: SPRAGUE-DAWLEY/FEMALE, Target Tissue: Type of Lesion: MAMMARY GLAND: TUMOR, Dose [Carcinogen]: 35 MG/KG ONCE AT 50 DAYS OF AGE, Promoter: NONE USED) 93%, 95%, -2%, not calculated; (Carcinogen: N-METHYL-N-NITROSOUREA, 684-93-5, Dose [Inhibitor]: 0, 782 MG/KG DIET BEGINNING AFTER THE SURGICAL REMOVAL OF THE FIRST PALPABLE TUMOR (STUDY DURATION: LIFETIME), Strain/Sex: SPRAGUE-DAWLEY/FEMALE, Target Tissue: Type of Lesion: MAMMARY GLAND: TUMOR, Dose [Carcinogen]: 35 MG/KG ONCE AT 50 DAYS OF AGE, Promoter: NONE USED) 93%, 89%, 4%, not calculated; (Carcinogen: N-METHYL-N-NITROSOUREA, 684-93-5, Dose [Inhibitor]: 0, 782 MG/KG DIET REDUCED TO 391 MG/KG DIET 2 WK POST CARCINOGEN DOSE (STUDY DURATION: 450 D), Strain/Sex: WISTAR-UNILEVER/MALE, Target Tissue: Type of Lesion: PROSTATE/SEMINAL VESICLE: ADENOCARCINOMA, Dose [Carcinogen]: 50 MG/KG BW ONCE, Promoter: TESTOSTERONE PROPIONATE, 57-85-2) 67%, 62%, 7%, not significant; (Carcinogen: N-METHYL-N-NITROSOUREA, 684-93-5, Dose [Inhibitor]: 0, 782 MG/KG OF CASEIN-BASED AIN-76A DIET FOR DURATION OF STUDY BEGINNING 7 D POST CARCINOGEN DOSE (STUDY DURATION: 25 W, Strain/Sex: F344/FEMALE, Target Tissue: Type of Lesion: MAMMARY GLAND: TUMOR, Dose [Carcinogen]: 45 MG/KG BW ONCE AT 5O D OF AGE, Promoter: NONE USED) 18/25 (72%), 20/25 (80%), -11%, not significant; (Carcinogen: N-METHYL-N-NITROSOUREA, 684-93-5, Dose [Inhibitor]: 0, 782 MG/KG OF DIET FOR DURATION OF STUDY BEGINNING 1 WK PRIOR TO CARCINOGEN TREATMENT (STUDY DURATION: 117 D), Strain/Sex: SPRAGUE-DAWLEY/FEMALE, Target Tissue: Type of Lesion: MAMMARY GLAND: ADENOCARCINOMA, Dose [Carcinogen]: 50 MG/KG BW ONCE, Promoter: NONE USED) 100%, 42%, 58%, not calculated. Moreover, the “tumour outcome (control, treated, inhibition, significance)” value (Carcinogen: N-METHYL-N-NITROSOUREA, 684-93-5, Dose [Inhibitor]: 0, 782 MG/KG OF GRAIN-BASED NIH-07 DIET FOR DURATION OF STUDY BEGINNING 7 D PRIOR TO CARCINOGEN DOSE (STUDY DURATION: 26, Strain/Sex: F344/FEMALE, Target Tissue: Type of Lesion: MAMMARY GLAND: TUMOR, Dose [Carcinogen]: 45 MG/KG BW ONCE AT 50 D OF AGE, Promoter: NONE USED) is given as 13/25 (52%), 7/25 (28%), 46%, not significant.
